Source: patent publication US11555180B2, “Methods and apparatuses for patient-derived micro-organospheres” (Xilis, Inc., priority 2019, dated 2023)

Legend:
[1] = system: tumor Micro-Organospheres; assay: drug screen on Patient-Derived Micro-Organospheres formed from a patient tumor biopsy; type: cell-based; settings: for percent survival of the Micro-Organospheres in the presence of the drug: Example 3, FIG. 23B, 23C
Source text: The Patient-Derived Micro-Organospheres described herein may be used in a variety of different assays, and in particular may be used to determine drug formulation effects, including toxicity, on normal and/or abnormal (e.g., cancerous) tissue. For example, drug screening may include applying Micro-Organospheres into all or some wells of multi-well (e.g., a 96-well) plate. Alternatively custom plates may be used (e.g., a 10,000 micro-well array may be formed of a 100 × 100 wells). The Micro-Organospheres (e.g., gel droplets) may be applied into, or in some variations onto the multiple microwell arrays and incubated with culture medium. The Micro-Organospheres may be cultured over the course of 3-5 days. In some variations, on day 5, the wells (e.g., micro-reactors) may then be dosed with drug compounds, e.g., based on a set of FDA-approved anticancer drugs, to examine the effects of the drug panel. For example, the drugs texted may be based on the National Cancer Institute (Division of Cancer Treatment and Diagnosis (11)) screen, consisting of 147 agents intended to enable cancer research, drug discovery and combination drug studies. On Day 7, the Micro-Organospheres may be imaged via standard fluorescent microscopy and ranked based on drug response.
In this example, the screening assay may be automated. This may enable repeatable and automated workflow, which may increase the number of drugs screened from a few to hundreds. FIGS. 17A-17E illustrate one example of this workflow. In FIG. 17A, a tumor biopsy is taken and a plurality (e.g., >10,000) Micro-Organospheres are formed as described above (in FIG. 17A the junction region forming the Micro-Organospheres is illustrated).
The workflow shown in FIGS. 17A-17E may enable an integrated device to be used for growing, dosing and/or reviewing the Micro-Organospheres. […] Their response to drug treatments, such as IC-50, cytotoxicity, and growth curves, may be measured to identify effective therapeutics against the patient's tumor.

[2] = system: traditional cell line; assay: traditional (2D) tumor cell line dosed with drug; type: cell-based; settings: Example 2, FIG. 22A, all dose ranges examined
Source text: As mentioned above, the Patient-Derived Micro-Organospheres and methods of using them to screen for drug compositions may be used to accurately predict the response of a patient tumor to one or more drug therapies. […] For example, in FIG. 22A-22D, the Micro-Organospheres, but not a cell line, was able to correlate with patient response.

[3] = system: patient tumor; assay: actual response of the patient's tumor to treatment with the drug; type: in vivo
Protocol: In a similar set of experiments, Micro-Organospheres were generated from biopsy material (FIG. 23A), and a drug effect screen was performed using the resulting Micro-Organospheres. […] Thus, the Micro-Organospheres correlated strongly with patient response to the standard of care drugs. In this case, the patient endured six months of side effects and toxicities that may have been avoided by the predicted response from the Micro-Organospheres, indicating (within 7-10 days from the biopsy) that the tumor would not respond to these drugs.

CCc1c2c(nc3ccc(OC(=O)N4CCC(N5CCCCC5)CC4)cc13)-c1cc3c(c(=O)n1C2)COC(=O)[C@]3(O)CC [Irinotecan]
percent survival of the Micro-Organospheres in the presence of the drug [1]: lack of effect

O=C1[O][Pt]2([NH][C@@H]3CCCC[C@H]3[NH]2)[O]C1=O [Oxaliplatin]
effect of the drug on the cell line [2]: no effect
cell survival of tumor Micro-Organospheres ([1]; Example 2, FIG. 22B): significant decreases in cell survival
percent survival of the Micro-Organospheres in the presence of the drug [1]: no change in the percent survival
tumor response to treatment ([3]; Example 2, FIG. 22C (before) and 22D (post treatment)): responded to treatment
patient response to treatment ([3]; Example 3, treated with both Oxalipalatin and Irinotecan, after 6 months of treatment): no response
